Reference: patent US20130164814A1, “CONTROL OF ENZYMES IN THE PRODUCTION OF PULP” (KEMIRA OYJ, priority 2010, published 2013)

Legend:
natural catalase = experiment: Peroxide concentration in 3% recovered paper pulp with catalase-containing process water; assay type: biochemical, bacteria; conditions: for Measured H2O2: 3% pulp, dose SPC 6.7 kg/t or H2O2 2.0 kg/t, + 7 kg/t H2O2 at 0 min
Experimental: The effect of SPC product A was studied with a system consisting of recycled fiber pulp and process water with natural catalase. Pulp for the experiment was produced at a recycled fiber pilot plant pulper. Old magazines and old newspapers (OMG/ONP 50/50) were shredded and repulped using process water from a European recycled fiber plant. in the pilot pulper at 19% consistency for 20 minutes with alkaline soap chemistry without peroxide (NaOH 10 kg/t (100%), water glass 15 kg/t (product), soap 5 kg/t). The pulp was stored in freezer until used. Process water from the recycled fiber pilot plant was used in the experiments for diluting the pulp into 3%.
6.7 kg/t of SPC A was added to the pulp and stirred for 5 minutes. After that, 7 kg/t of 100% peroxide was added (at 0 min in FIG. 2 and Table 3) and the concentration of peroxide in the pulp filtrate was measured against time. The SPC addition brought into the system slightly below 2.0 kg peroxide /ton. Therefore, 2.0 kg of peroxide/t representing a reference sample was added to the pulp and stirred for 5 minutes. Again, after that 7 kg/t of 100% peroxide was added (at 0 min in FIG. 2 and Table 3) and the concentration of peroxide was determined by titration against time from the pulp filtrate.

[1] = system: commercial catalase enzyme; experiment: Peroxide decomposition in pure water-peroxide-catalase system (titration against time); assay type: biochemical; conditions: 100 mg/L SPC
Experimental: (§1) Sodium percarbonate (SPC product E) was tested in a pure distilled water system containing peroxide (210 mg/L), commercial catalase enzyme (1 μL/L) and NaOH to adjust the pH to 9.7 corresponding to the alkaline conditions in a recycled fiber plant. The size of SPC particles comprising NaCO3 coated with Na2SO4 was between 6 and 900 micrometers with maximum 1% >1.6 mm and maximum 2% <0.15 mm. Peroxide decomposition was measured by titration against time. Higher residual peroxide level was obtained with SPC than without any catalase control additive with water-catalase-peroxide system at pH 9.7. Catalase destroyed the 210 mg/I of peroxide very rapidly (FIG. 1, black square). Addition of 100 mg/L of SPC was able to retain the residual peroxide concentration at markedly higher level (triangle). After some initial peroxide degradation, the peroxide level stabilized to ˜80 mg/L. It is known that SPC brings peroxide in the system; this was measured to be 30 mg/L (triangle dotted line). […] Probably catalase enzyme managed to degrade a part of the added peroxide before it was inactivated.

[2] = Effect of SPC on the peroxide titration (SPC without catalase and without added H2O2); assay type: physicochemical; conditions: 100 mg/L SPC
Experimental: as §1

## OO [H2O2, hydrogen peroxide, reference compound]
Natural catalase; 0 min
  Measured H2O2: 8.7 kg/t
Natural catalase; 10 min
  Measured H2O2: 6.4 kg/t
Natural catalase; 30 min
  Measured H2O2: 5.8 kg/t
Natural catalase; 60 min
  Measured H2O2: 5.2 kg/t

## O=C([O-])[O-].O=C([O-])[O-].OO.OO.OO.[Na+].[Na+].[Na+].[Na+] [SPC product E, sodium percarbonate]
[1]; water-catalase-peroxide system
  Measured benefit: peroxide higher than what only came from SPC: 50 mg/L

## O=C([O-])[O-].O=C([O-])[O-].OO.OO.OO.[Na+].[Na+].[Na+].[Na+] [SPC, sodium percarbonate]
[2]
  Peroxide brought into the system by SPC: 30 mg/L
Natural catalase; 3% pulp made of recovered paper
  Peroxide decomposition compared with an equal amount of added peroxide: Less peroxide decomposed
Natural catalase; 0 min
  Measured H2O2: 8.7 kg/t
Natural catalase; 10 min
  Measured H2O2: 7.9 kg/t
Natural catalase; 30 min
  Measured H2O2: 7.4 kg/t
Natural catalase; 60 min
  Measured H2O2: 7.0 kg/t
[1]; 210 mg/L peroxide, catalase 1 μL/L, pH 9.7
  Stabilized peroxide level after initial degradation: ~80 mg/L
